According to patent US20260232767A1, “INTERLEUKIN-23 RECEPTOR ANTAGONIST PEPTIDES FOR USE IN THE TREATMENT OF PSORIASIS” (Janssen Pharmaceutica NV, priority 2023, published 2026):

Tested on: subjects with moderate-to-severe plaque psoriasis
Experiment: Safety, adverse events, Example 2 through Week 56
Type: in vivo, human
Conditions: 100 mg QD
Description: The LTE safety analysis was based on randomized participants in Example who entered the present long-term extension study and received at least one dose of study intervention (including a partial dose) during the study period.

CC(=O)NCCCC[C@@H]1NC(=O)[C@H](Cc2c[nH]c3c(C)cccc23)NC(=O)[C@H]([C@@H](C)O)NC(=O)[C@H](CC(N)=O)NC(=O)[C@@H](NC(C)=O)C(C)(C)SSC(C)(C)[C@@H](C(=O)N[C@@H](Cc2ccc(OCCN)cc2)C(=O)N[C@@H](Cc2ccc3ccccc3c2)C(=O)NC2(C(=O)N[C@@H](CCC(=O)O)C(=O)N[C@@H](CC(N)=O)C(=O)N[C@@H](Cc3cccnc3)C(=O)N(C)CC(N)=O)CCOCC2)NC1=O [IL-23 receptor antagonist peptide, Ac-[Pen]*-N-T-[W(7-Me)]-[Lys(Ac)]-[Pen]*-Phe[4-(2-aminoethoxy)]-[2-Nal]-[THP]-E-N-[3-Pal]-Sarc-NH2 (*[Pen]-[Pen]* formdisulfidebond)]
Subjects with treatment-emergent AE: Bronchitis (Week 16-56): 0 | Subjects with treatment-emergent AE: Meniscus injury (Week 16-56): 0 | Subjects with treatment-emergent AE: Sinusitis (Week 16-56): 0 | Subjects with treatment-emergent AE: Urinary tract infection (Week 16-56): 0 | Subjects with treatment-emergent serious AE: Cardiac disorders (Week 16-56): 0 | Subjects with treatment-emergent serious AE: Cerebrovascular accident (Week 16-56): 0 | Subjects with treatment-emergent serious AE: Coronary artery disease (Week 16-56): 0 | Subjects with treatment-emergent serious AE: Foot deformity (Week 16-56): 0 | Subjects with treatment-emergent serious AE: General disorders and administration site conditions (Week 16-56): 0 | Subjects with treatment-emergent serious AE: Injury, poisoning and procedural complications (Week 16-56): 0 | Subjects with treatment-emergent serious AE: Ligament injury (Week 16-56): 0 | Subjects with treatment-emergent serious AE: Neoplasms benign, malignant and unspecified (incl cysts and polyps) (Week 16-56): 0 | Subjects with treatment-emergent serious AE: Nervous system disorders (Week 16-56): 0 | Subjects with treatment-emergent serious AE: Non-cardiac chest pain (Week 16-56): 0 | Subjects with treatment-emergent serious AE: Respiratory, thoracic and mediastinal disorders (Week 16-56): 0 | Subjects with treatment-emergent serious AE: Tonsillar hypertrophy (Week 16-56): 0 | Subjects with treatment-emergent serious AE: Uterine leiomyoma (Week 16-56): 0 | Subjects with treatment-emergent serious AE: Ventricular dysfunction (Week 16-56): 0 | Acrochordon: % of subjects (through Week 56): (2.3%) | Acrochordon: number of subjects (through Week 56): 1 | Actinic keratosis: number of subjects (through Week 56): 0 | Alopecia: number of subjects (through Week 56): 0 | Asthenia: number of subjects (through Week 56): 0 | Asthma: % of subjects (through Week 56): (2.3%) | Asthma: number of subjects (through Week 56): 1 | Atrioventricular block first degree: % of subjects (through Week 56): (2.3%) | Atrioventricular block first degree: number of subjects (through Week 56): 1 | Basal cell carcinoma: number of subjects (through Week 56): 0 | Blood and lymphatic system disorders: number of subjects (through Week 56): 0 | Bronchitis chronic: % of subjects (through Week 56): (2.3%) | Bronchitis chronic: number of subjects (through Week 56): 1 | Bundle branch block right: number of subjects (through Week 56): 0 | Cardiac disorders: % of subjects (through Week 56): (2.3%) | Cardiac disorders: number of subjects (through Week 56): 1 | Chills: % of subjects (through Week 56): (2.3%) | Chills: number of subjects (through Week 56): 1 | Cholelithiasis: % of subjects (through Week 56): (2.3%) | Cholelithiasis: number of subjects (through Week 56): 1 | Chronic obstructive pulmonary disease: % of subjects (through Week 56): (2.3%) | Chronic obstructive pulmonary disease: number of subjects (through Week 56): 1 | Coronary artery disease: number of subjects (through Week 56): 0 | Cough: % of subjects (through Week 56): (7.0%) | Cough: number of subjects (through Week 56): 3 | Decreased appetite: number of subjects (through Week 56): 0 | Depression: % of subjects (through Week 56): (2.3%) | Depression: number of subjects (through Week 56): 1 | Dermal cyst: number of subjects (through Week 56): 0 | Dermatitis acneiform: number of subjects (through Week 56): 0 | Dermatitis contact: % of subjects (through Week 56): (2.3%) | Dermatitis contact: number of subjects (through Week 56): 1 | Diabetes mellitus: number of subjects (through Week 56): 0 | Diffuse alopecia: number of subjects (through Week 56): 0 | Dysuria: number of subjects (through Week 56): 0 | Ear and labyrinth disorders: % of subjects (through Week 56): (2.3%) | Ear and labyrinth disorders: number of subjects (through Week 56): 1 | Endocrine disorders: number of subjects (through Week 56): 0 | Eye disorders: number of subjects (through Week 56): 0 | Eyelid skin dryness: number of subjects (through Week 56): 0 | Fatigue: % of subjects (through Week 56): (2.3%) | Fatigue: number of subjects (through Week 56): 1 | General disorders and administration site conditions: % of subjects (through Week 56): (7.0%) | General disorders and administration site conditions: number of subjects (through Week 56): 3 | Goiter: number of subjects (through Week 56): 0 | Haemochromatosis: number of subjects (through Week 56): 0 | Hand dermatitis: number of subjects (through Week 56): 0 | Hematuria: number of subjects (through Week 56): 0 | Hepatobiliary disorders: % of subjects (through Week 56): (2.3%) | Hepatobiliary disorders: number of subjects (through Week 56): 1 | Hypercholesterolemia: % of subjects (through Week 56): (2.3%) | Hypercholesterolemia: number of subjects (through Week 56): 1 | Hyperglycemia: % of subjects (through Week 56): (2.3%) | Hyperglycemia: number of subjects (through Week 56): 1 | Hyperlipidemia: number of subjects (through Week 56): 0 | Hypertension: % of subjects (through Week 56): (2.3%) | Hypertension: number of subjects (through Week 56): 1 | Hypertransaminasemia: number of subjects (through Week 56): 0 | Hypertriglyceridemia: number of subjects (through Week 56): 0 | Hypoacusis: number of subjects (through Week 56): 0 | Immune system disorders: number of subjects (through Week 56): 0 | Influenza like illness: number of subjects (through Week 56): 0 | Insomnia: % of subjects (through Week 56): (2.3%) | Insomnia: number of subjects (through Week 56): 1 | Intertrigo: number of subjects (through Week 56): 0 | Ketonuria: number of subjects (through Week 56): 0 | Leukocyturia: % of subjects (through Week 56): (2.3%) | Leukocyturia: number of subjects (through Week 56): 1 | Leukopenia: number of subjects (through Week 56): 0 | Libido decreased: % of subjects (through Week 56): (2.3%) | Libido decreased: number of subjects (through Week 56): 1 | Liver disorder: number of subjects (through Week 56): 0 | Lymphopenia: number of subjects (through Week 56): 0 | Menopause: number of subjects (through Week 56): 0 | Metabolism and nutrition disorders: % of subjects (through Week 56): (4.7%) | Metabolism and nutrition disorders: number of subjects (through Week 56): 2 | Neoplasms benign, malignant and unspecified (incl cysts and polyps): % of subjects (through Week 56): (2.3%) | Neoplasms benign, malignant and unspecified (incl cysts and polyps): number of subjects (through Week 56): 1 | Nephrolithiasis: % of subjects (through Week 56): (2.3%) | Nephrolithiasis: number of subjects (through Week 56): 1 | Neutropenia: number of subjects (through Week 56): 0 | Night sweats: number of subjects (through Week 56): 0 | Non-cardiac chest pain: number of subjects (through Week 56): 0 | Ocular cyst: number of subjects (through Week 56): 0 | Oedema peripheral: % of subjects (through Week 56): (2.3%) | Oedema peripheral: number of subjects (through Week 56): 1 | Oropharyngeal pain: % of subjects (through Week 56): (2.3%) | Oropharyngeal pain: number of subjects (through Week 56): 1 | Procedural pain: number of subjects (through Week 56): 0 | Productive cough: number of subjects (through Week 56): 0 | Proteinuria: number of subjects (through Week 56): 0 | Pruritus: % of subjects (through Week 56): (2.3%) | Pruritus: number of subjects (through Week 56): 1 | Psoriasis: number of subjects (through Week 56): 0 | Psychiatric disorders: % of subjects (through Week 56): (7.0%) | Psychiatric disorders: number of subjects (through Week 56): 3 | Pyrexia: number of subjects (through Week 56): 0 | Rash pruritic: number of subjects (through Week 56): 0 | Renal and urinary disorders: % of subjects (through Week 56): (4.7%) | Renal and urinary disorders: number of subjects (through Week 56): 2 | Renal mass: number of subjects (through Week 56): 0 | Respiratory, thoracic and mediastinal disorders: % of subjects (through Week 56): (9.3%)
